From patent US9688699B2, “3-(pyrimidine-2-yl)imidazo[1,2-a]pyridines” (Bayer Pharma Aktiengesellschaft, priority 2014, dated 2017)
Counter-ions that a name gives are not always drawn.

Key:
[1] = molecular target: T1, recombinant guanylate cyclase reporter cell line (Rattus norvegicus, UniProt P19686+P20595); test: Effect on a recombinant guanylate cyclase reporter cell line (B-2); format: cell-based; conditions: MEC = minimum effective concentration, in some cases mean values for individual determinations
T1 construct: expressed in transfected cells
T1 sequence (P19686 1-690): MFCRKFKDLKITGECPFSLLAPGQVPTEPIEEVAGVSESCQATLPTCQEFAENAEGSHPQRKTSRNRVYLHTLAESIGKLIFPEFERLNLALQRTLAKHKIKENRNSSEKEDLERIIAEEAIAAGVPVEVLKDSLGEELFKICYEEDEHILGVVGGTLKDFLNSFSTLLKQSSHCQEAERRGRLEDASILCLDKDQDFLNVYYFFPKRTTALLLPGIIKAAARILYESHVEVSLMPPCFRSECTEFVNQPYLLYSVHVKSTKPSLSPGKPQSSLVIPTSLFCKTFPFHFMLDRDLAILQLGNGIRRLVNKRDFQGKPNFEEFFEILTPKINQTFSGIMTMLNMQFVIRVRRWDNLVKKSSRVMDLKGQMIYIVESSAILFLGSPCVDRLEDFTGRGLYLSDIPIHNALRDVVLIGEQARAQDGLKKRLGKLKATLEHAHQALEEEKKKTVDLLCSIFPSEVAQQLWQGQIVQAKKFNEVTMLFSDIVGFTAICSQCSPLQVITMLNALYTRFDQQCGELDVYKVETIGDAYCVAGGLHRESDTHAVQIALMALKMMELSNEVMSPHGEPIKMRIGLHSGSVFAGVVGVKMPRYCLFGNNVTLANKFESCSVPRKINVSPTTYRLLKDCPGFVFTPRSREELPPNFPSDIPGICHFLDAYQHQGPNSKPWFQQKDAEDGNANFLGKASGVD
T1 sequence (P20595 1-619): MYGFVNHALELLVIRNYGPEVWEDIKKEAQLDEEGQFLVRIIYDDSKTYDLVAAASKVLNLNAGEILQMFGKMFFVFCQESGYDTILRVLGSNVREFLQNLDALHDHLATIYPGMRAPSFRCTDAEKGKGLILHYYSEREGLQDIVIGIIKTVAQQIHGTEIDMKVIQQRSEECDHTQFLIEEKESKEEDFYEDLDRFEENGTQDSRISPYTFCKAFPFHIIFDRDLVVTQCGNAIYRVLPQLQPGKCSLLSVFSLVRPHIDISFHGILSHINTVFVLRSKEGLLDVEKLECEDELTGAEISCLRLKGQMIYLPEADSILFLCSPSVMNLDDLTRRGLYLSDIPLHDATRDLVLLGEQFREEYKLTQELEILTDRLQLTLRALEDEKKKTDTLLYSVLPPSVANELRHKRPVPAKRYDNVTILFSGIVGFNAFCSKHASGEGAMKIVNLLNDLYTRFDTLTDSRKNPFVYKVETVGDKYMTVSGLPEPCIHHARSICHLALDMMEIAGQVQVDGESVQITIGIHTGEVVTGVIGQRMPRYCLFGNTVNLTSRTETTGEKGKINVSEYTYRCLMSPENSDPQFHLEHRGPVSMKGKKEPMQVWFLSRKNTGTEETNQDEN
Procedure, shortened: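 Cellular guanylate cyclase activity measured in a recombinant reporter cell line expressing rat soluble guanylate cyclase subunits. Values are minimum effective concentrations (MEC), some as means of individual determinations.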

[2] = molecular target: T2, human phosphodiesterase 5 (PDE 5) (Homo sapiens, UniProt O76074); test: Inhibition of human phosphodiesterase 5 (PDE 5) (B-3); format: biochemical; conditions: PDE 5 preparation from human platelets; [8-3H] cGMP substrate, SPA; in some cases means of individual determinations
T2 construct: PDE 5 preparations are obtained from human platelets by disruption; from tissue; host or cells: human platelets (Mono Q ion exchange fractions with PDE 5 activity)
Procedure, shortened: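 Enzyme partially purified from human platelets by Mono Q ion exchange; [8-3H]cGMP substrate (0.025 μCi), Tris-HCl pH 7.5 with MgCl2/EDTA, <70% conversion, 60 min at room temperature. Compounds tested at 4 to 0.0018 μM final; yttrium SPA bead read-out, IC50 from concentration–% inhibition plot.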

## Cc1nc2c(OCc3c(F)cccc3F)cccn2c1-c1nc(NCC(C)(C)N)c2c(n1)NC(=O)C2(C)C(F)(F)F (racemic) [Example 41, rac-4-[(2-Amino-2-methylpropyl)amino]-2-{8-[(2,6-difluorobenzyl)oxy]-2-methylimidazo[1,2-a]pyridin-3-yl}-5-methyl-5-(trifluoromethyl)-5,7-dihydro-6H-pyrrolo[2,3-d]pyrimidin-6-one]
[1]
  MEC: 0.1 µM
[2]
  IC50: 1.7 nM

## Cc1nc2c(OCc3c(F)cccc3F)cccn2c1-c1nc(NCC(N)c2ccc(F)c(F)c2)c2c(n1)NC(=O)C2(C)C (single isomer, unassigned; ent-4) [Example 14, ent-4-{[2-Amino-2-(3,4-difluorophenyl)ethyl]amino}-2-{8-[(2,6-difluorobenzyl)oxy]-2-methylimidazo[1,2-a]pyridin-3-yl}-5,5-dimethyl-5,7-dihydro-6H-pyrrolo[2,3-d]pyrimidin-6-one]
[1]
  MEC: 3 µM
[2]
  IC50: 91 nM

## Cc1nc2c(OCc3c(F)cccc3F)cccn2c1-c1nc(NCCC(F)(F)F)c2c(n1)NC(=O)C2(C)C [Example 19, 2-{8-[(2,6-difluorobenzyl)oxy]-2-methylimidazo[1,2-a]pyridin-3-yl}-5,5-dimethyl-4-[(3,3,3-trifluoropropyl)amino]-5,7-dihydro-6H-pyrrolo[2,3-d]pyrimidin-6-one]
[1]
  MEC: 1 µM
[2]
  IC50: 7.1 nM

## COCC(C)(N)CNc1nc(-c2c(C)nc3c(OCc4c(F)cccc4F)cccn23)nc2c1C(C)(C)C(=O)N2 (racemic) [Example 21, rac-4-[(2-amino-3-methoxy-2-methylpropyl)amino]-2-{8-[(2,6-difluorobenzyl)oxy]-2-methylimidazo[1,2-a]pyridin-3-yl}-5,5-dimethyl-5,7-dihydro-6H-pyrrolo[2,3-d]pyrimidin-6-one]
[1]
  MEC: 0.3 µM
[2]
  IC50: 22 nM

## Cc1nc2c(OCc3c(F)cccc3F)cccn2c1-c1nc2c(c(Oc3cn[nH]c3)n1)C(C)(C)C(=O)N2 [Example 44, 2-{8-[(2,6-Difluorobenzyl)oxy]-2-methylimidazo[1,2-a]pyridin-3-yl}-5,5-dimethyl-4-(1H-pyrazol-4-yloxy)-5,7-dihydro-6H-pyrrolo[2,3-d]pyrimidin-6-one]
[1]
  MEC: 1 µM
[2]
  IC50: 1.5 nM

## Cc1nc2c(OCc3c(F)cccc3F)cccn2c1-c1nc(NCC2(O)CC2)c2c(n1)NC(=O)C2(C)C [Example 17, 2-{8-[(2,6-difluorobenzyl)oxy]-2-methylimidazo[1,2-a]pyridin-3-yl}-4-{[(1-hydroxycyclopropyl)methyl]amino}-5,5-dimethyl-5,7-dihydro-6H-pyrrolo[2,3-d]pyrimidin-6-one]
[1]
  MEC: 0.3 µM
[2]
  IC50: 4.6 nM

## Cc1nc2c(OCc3c(F)ccc(F)c3F)cccn2c1-c1nc(NCC(C)(C)O)c2c(n1)NC(=O)C2(C)C [Example 34, 4-[(2-hydroxy-2-methylpropyl)amino]-5,5-dimethyl-2-{2-methyl-8-[(2,3,6-trifluorobenzyl)oxy]imidazo[1,2-a]pyridin-3-yl}-5,7-dihydro-6H-pyrrolo[2,3-d]pyrimidin-6-one]
[1]
  MEC: 1 µM
[2]
  IC50: 5.3 nM

## Cc1nc2c(OCc3c(F)cccc3F)cccn2c1-c1nc(NCCO)c2c(n1)NC(=O)C2(C)C [Example 24, 2-{8-[(2,6-difluorobenzyl)oxy]-2-methylimidazo[1,2-a]pyridin-3-yl}-4-[(2-hydroxyethyl)amino]-5,5-dimethyl-5,7-dihydro-6H-pyrrolo[2,3-d]pyrimidin-6-one trifluoroacetate]
[1]
  MEC: 0.3 µM
[2]
  IC50: 1.3 nM

## Cc1nc2c(OCc3c(F)cccc3F)cccn2c1-c1nc2c(c(C(=O)NCC(C)(C)O)n1)C(C)(C)C(=O)N2 [Example 56, 2-{8-[(2,6-difluorobenzyl)oxy]-2-methylimidazo[1,2-a]pyridin-3-yl}-N-(2-hydroxy-2-methylpropyl)-5,5-dimethyl-6-oxo-6,7-dihydro-5H-pyrrolo[2,3-d]pyrimidine-4-carboxamide]
[1]
  MEC: 0.3 µM
[2]
  IC50: 1.3 nM

## Cc1nc2c(OCc3c(F)cccc3F)cccn2c1-c1nc(Cl)c2c(n1)NC(=O)C2(C)C [Example 4, 4-Chloro-2-{8-[(2,6-difluorobenzyl)oxy]-2-methylimidazo[1,2-a]pyridin-3-yl}-5,5-dimethyl-5,7-dihydro-6H-pyrrolo[2,3-d]pyrimidin-6-one]
[1]
  MEC: 3 µM
[2]
  IC50: 110 nM

## Cc1nc2c(OCc3c(F)cccc3F)cccn2c1-c1nc2c(c(NC3CCC(C)(O)CC3)n1)C(C)(C)C(=O)N2 (single isomer, unassigned; diastereomer 2) [Example 29, 2-{8-[(2,6-difluorobenzyl)oxy]-2-methylimidazo[1,2-a]pyridin-3-yl}-4-[(4-hydroxy-4-methylcyclohexyl)amino]-5,5-dimethyl-5,7-dihydro-6H-pyrrolo[2,3-d]pyrimidin-6-one formate (Diastereomer 2)]
[1]
  MEC: 0.3 µM
[2]
  IC50: 0.9 nM

## Cc1nc2c(OCc3c(F)ccc(F)c3F)cccn2c1-c1ncc2c(n1)NC(=O)C2(C)C [Example 75, 5,5-Dimethyl-2-{2-methyl-8-[(2,3,6-trifluorobenzyl)oxy]imidazo[1,2-a]pyridin-3-yl}-5,7-dihydro-6H-pyrrolo[2,3-d]pyrimidin-6-one formate]
[1]
  MEC: 10 µM
[2]
  IC50: 370 nM

## Cc1nc2c(OCc3c(F)cccc3F)cccn2c1-c1nnc2c(n1)NC(=O)C2(C)C [Example 68, 3-{8-[(2,6-Difluorobenzyl)oxy]-2-methylimidazo[1,2-a]pyridin-3-yl}-7,7-dimethyl-5,7-dihydro-6H-pyrrolo[2,3-e][1,2,4]triazin-6-one]
[1]
  MEC: 1 µM
[2]
  IC50: 260 nM
